According to patent US20240376094A2, “SELECTIVE BCL-XL PROTAC COMPOUNDS AND METHODS OF USE” (Les Laboratoires Servier, priority 2021, published 2024):

Assays:
Type in all cases: cell-based
HiBiT-tagged BCL-xL = molecular target: T1, HiBiT-tagged BCL-xL (Homo sapiens, UniProt Q07817); test: NCI-H1650 BCL-xL protein levels, Nano-Glo HiBiT Lytic Detection; details: NCI-H1650 expressing HiBiT-tagged BCL-xL, overnight incubation, read-out: Bcl-xl HIBIT NCIH1650 DC50
T1 construct: expressed in transfected cells; host or cells: NCI-H1650 (ATCC No. CRL-5883), engineered HiBiT cell line
How it was run: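 NCI-H1650 cells expressing HiBiT-tagged BCL-xL (5000/well) were treated overnight at 37° C with 10 concentrations, final 0.508 nM-10 μM, in triplicate. Remaining BCL-xL measured by Nano-Glo HiBiT lytic luminescence, normalized to untreated cells; 50% values by four-parameter logistic fit.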

Bcl-xL = molecular target: T2, Bcl-xL (Homo sapiens, UniProt Q07817); test: HCT116 Bcl-xL degradation, capillary-based immunoassay (WES); details: HCT116, 24 h, 9-point serial dilution
T2 construct: Measured levels of Bcl-xL protein of HCT116 cells treated with the tested compounds; host or cells: HCT116
How it was run: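 HCT116 cells treated 24 h with compound at 10/100 nM and/or 9-point dilution (quadruplicates), then lysed. Bcl-xL measured by capillary WES immunoassay, normalized to cofilin and expressed as % of untreated cells. DC50 from four-parameter curve fit.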

MOLT-4 cells = test: MOLT-4 cell viability, CTG assay; details: Homo sapiens, MOLT-4, 48 h
How it was run: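 Cells grown in RPMI 1640 with 10% FBS at 37° C, 5% CO2, then exposed to compounds for 48 h (11-point 5-fold dilution, triplicates). ATP measured by CellTiter-Glo luminescence; IC50 from four-parameter fit versus control, mean of ≥2 independent experiments.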

[1] = system: EBC-1 lung cancer cell line; test: EBC-1 cell proliferation, CellTiter-Glo assay; details: Homo sapiens, 120 h; Ebc-1 cell viability, CTG assay, 5 days of treatment; read-out: CTG 5 day Ebc1 GI50
How it was run: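 EBC-1 cells seeded at 1000 per well overnight, then exposed to 10-point dilutions (0.508 nM–10 μM final) for 5 days at 37 °C, in triplicate. ATP luminescence by CellTiter-Glo, normalised to untreated wells; GI50 from four-parameter logistic fit, runs valid only with at least one doubling.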

T1 sequence (Q07817 whole entry): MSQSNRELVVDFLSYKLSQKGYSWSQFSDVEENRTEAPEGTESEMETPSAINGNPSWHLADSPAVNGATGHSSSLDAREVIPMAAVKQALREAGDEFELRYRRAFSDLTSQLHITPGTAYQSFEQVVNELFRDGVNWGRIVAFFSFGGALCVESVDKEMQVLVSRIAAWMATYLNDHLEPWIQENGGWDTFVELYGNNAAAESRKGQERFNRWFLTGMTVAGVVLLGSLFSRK
T2 sequence (Q07817 whole entry): as above

Compound | DC50 (HiBiT-tagged BCL-xL) [nM] | DC50 (Bcl-xL) [nM] | IC50 (MOLT-4 cells) [nM] | GI50 [1] [nM]
Cc1ncsc1-c1ccc(CNC(=O)[C@@H]2C[C@@H](O)CN2C(=O)[C@@H](NC(=O)C2(F)CC2)C(C)(C)C)c(OCCCCCCCCCCCN(C)CCOC23CC4(C)CC(C)(CC(Cn5ncc(-c6ccc(N7CCCc8c7nnc(Nc7nc9ccccc9s7)c8C)nc6C(=O)O)c5C)(C4)C2)C3)c1 [Example 76, 6-[3-(1,3-benzothiazol-2-ylamino)-4-methyl-6,7-dihydro-5H-pyrido[2,3-c]pyridazin-8-yl]-3-[1-[[3-[2-[11-[2-[[[(2S,4R)-1-[(2S)-2-[(1-fluorocyclopropanecarbonyl)amino]-3,3-dimethyl-butanoyl]-4-hydroxy-pyrrolidine-2-carbonyl]amino]methyl]-5-(4-methylthiazol-5-yl)phenoxy]undecyl-methyl-amino]ethoxy]-5,7-dimethyl-1-adamantyl]methyl]-5-methyl-pyrazol-4-yl]pyridine-2-carboxylic acid] | 3 | 0.28 | 8.34 | 134
Cc1ncsc1-c1ccc(CNC(=O)[C@@H]2C[C@@H](O)CN2C(=O)[C@@H](NC(=O)C2(F)CC2)C(C)(C)C)c(OCCCCCCCCCCN(C)CCOC23CC4(C)CC(C)(CC(Cn5ncc(-c6ccc(N7CCCc8c7nnc(Nc7nc9ccccc9s7)c8C)nc6C(=O)O)c5C)(C4)C2)C3)c1 [Example 73, 6-[3-(1,3-benzothiazol-2-ylamino)-4-methyl-6,7-dihydro-5H-pyrido[2,3-c]pyridazin-8-yl]-3-[1-[[3-[2-[10-[2-[[[(2S,4R)-1-[(2S)-2-[(1-fluorocyclopropanecarbonyl)amino]-3,3-dimethyl-butanoyl]-4-hydroxy-pyrrolidine-2-carbonyl]amino]methyl]-5-(4-methylthiazol-5-yl)phenoxy]decyl-methyl-amino]ethoxy]-5,7-dimethyl-1-adamantyl]methyl]-5-methyl-pyrazol-4-yl]pyridine-2-carboxylic acid] | 13 | 7.69 | 24 | 186
Cc1ncsc1-c1ccc([C@H](C)NC(=O)[C@@H]2C[C@@H](O)CN2C(=O)[C@@H](NC(=O)CCOCCOCCOCCOCCN(C)CCOC23CC4(C)CC(C)(CC(Cn5ncc(-c6ccc(N7CCCc8c7nnc(Nc7nc9ccccc9s7)c8C)nc6C(=O)O)c5C)(C4)C2)C3)C(C)(C)C)cc1 [Example 89, 6-[3-(1,3-benzothiazol-2-ylamino)-4-methyl-6,7-dihydro-5H-pyrido[2,3-c]pyridazin-8-yl]-3-[1-[[3-[2-[2-[2-[2-[2-[3-[[(1S)-1-[(2S,4R)-4-hydroxy-2-[[(1S)-1-[4-(4-methylthiazol-5-yl)phenyl]ethyl]carbamoyl]pyrrolidine-1-carbonyl]-2,2-dimethyl-propyl]amino]-3-oxo-propoxy]ethoxy]ethoxy]ethoxy]ethyl-methyl-amino]ethoxy]-5,7-dimethyl-1-adamantyl]methyl]-5-methyl-pyrazol-4-yl]pyridine-2-carboxylic acid] | 13 | > 316 | 57.6 | 435
Cc1ncsc1-c1ccc([C@H](C)NC(=O)[C@@H]2C[C@@H](O)CN2C(=O)[C@@H](NC(=O)CCCCCCNC(=O)c2nc(N3CCCc4c3nnc(Nc3nc5ccccc5s3)c4C)ccc2-c2cnn(CC34CC5(C)CC(C)(C3)CC(OCCN3CCCC3)(C5)C4)c2C)C(C)(C)C)cc1 [Example 120, 6-[3-(1,3-benzothiazol-2-ylamino)-4-methyl-6,7-dihydro-5H-pyrido[2,3-c]pyridazin-8-yl]-3-[1-[[3,5-dimethyl-7-(2-pyrrolidin-1-ylethoxy)-1-adamantyl]methyl]-5-methyl-pyrazol-4-yl]-N-[7-[[(1S)-1-[(2S,4R)-4-hydroxy-2-[[(1S)-1-[4-(4-methylthiazol-5-yl)phenyl]ethyl]carbamoyl]pyrrolidine-1-carbonyl]-2,2-dimethyl-propyl]amino]-7-oxo-heptyl]pyridine-2-carboxamide] | 1 | 1.68 | 7.29 | 119
Cc1ncsc1-c1ccc([C@H](C)NC(=O)[C@@H]2C[C@@H](O)CN2C(=O)[C@@H](NC(=O)CCCCCCCCCCCCCN(C)CCOC23CC4(C)CC(C)(CC(Cn5ncc(-c6ccc(N7CCCc8c7nnc(Nc7nc9ccccc9s7)c8C)nc6C(=O)N(C)C)c5C)(C4)C2)C3)C(C)(C)C)cc1 [Example 148, 6-[3-(1,3-benzothiazol-2-ylamino)-4-methyl-6,7-dihydro-5H-pyrido[2,3-c]pyridazin-8-yl]-3-[1-[[3-[2-[[14-[[(1S)-1-[(2S,4R)-4-hydroxy-2-[[(1S)-1-[4-(4-methylthiazol-5-yl)phenyl]ethyl]carbamoyl]pyrrolidine-1-carbonyl]-2,2-dimethyl-propyl]amino]-14-oxo-tetradecyl]-methyl-amino]ethoxy]-5,7-dimethyl-1-adamantyl]methyl]-5-methyl-pyrazol-4-yl]-N,N-dimethyl-pyridine-2-carboxamide] | 1 | 1.37 | 4.51 | 7
Cc1ncsc1-c1ccc(CNC(=O)[C@@H]2C[C@@H](O)CN2C(=O)[C@@H](NC(=O)C2(F)CC2)C(C)(C)C)c(OCCCCCCCCCCCCCN(C)CCOC23CC4(C)CC(C)(CC(Cn5ncc(-c6ccc(N7CCCc8c7nnc(Nc7nc9ccccc9s7)c8C)nc6C(=O)O)c5C)(C4)C2)C3)c1 [Example 85, 6-[3-(1,3-benzothiazol-2-ylamino)-4-methyl-6,7-dihydro-5H-pyrido[2,3-c]pyridazin-8-yl]-3-[1-[[3-[2-[13-[2-[[[(2S,4R)-1-[(2S)-2-[(1-fluorocyclopropanecarbonyl)amino]-3,3-dimethyl-butanoyl]-4-hydroxy-pyrrolidine-2-carbonyl]amino]methyl]-5-(4-methylthiazol-5-yl)phenoxy]tridecyl-methyl-amino]ethoxy]-5,7-dimethyl-1-adamantyl]methyl]-5-methyl-pyrazol-4-yl]pyridine-2-carboxylic acid] | 5 | 0.291 | 4.17 | 64
Cc1ncsc1-c1ccc([C@H](C)NC(=O)[C@@H]2C[C@@H](O)CN2C(=O)[C@@H](NC(=O)CCCCCCCCCCCNC(=O)c2nc(N3CCCc4c3nnc(Nc3nc5ccccc5s3)c4C)ccc2-c2cnn(CC34CC5(C)CC(C)(C3)CC(OCCN3CCCC3)(C5)C4)c2C)C(C)(C)C)cc1 [Example 131, 6-[3-(1,3-benzothiazol-2-ylamino)-4-methyl-6,7-dihydro-5H-pyrido[2,3-c]pyridazin-8-yl]-3-[1-[[3,5-dimethyl-7-(2-pyrrolidin-1-ylethoxy)-1-adamantyl]methyl]-5-methyl-pyrazol-4-yl]-N-[12-[[(1S)-1-[(2S,4R)-4-hydroxy-2-[[(1S)-1-[4-(4-methylthiazol-5-yl)phenyl]ethyl]carbamoyl]pyrrolidine-1-carbonyl]-2,2-dimethyl-propyl]amino]-12-oxo-dodecyl]pyridine-2-carboxamide] | 1 | 1.34 | 13.9 | 8
Cc1ncsc1-c1ccc(CNC(=O)[C@@H]2C[C@@H](O)CN2C(=O)[C@@H](NC(=O)C2(F)CC2)C(C)(C)C)c(OCCCCCCCCCCCCCCN(C)CCOC23CC4(C)CC(C)(CC(Cn5ncc(-c6ccc(N7CCCc8c7nnc(Nc7nc9ccccc9s7)c8C)nc6C(=O)O)c5C)(C4)C2)C3)c1 [Example 146, 6-[3-(1,3-benzothiazol-2-ylamino)-4-methyl-6,7-dihydro-5H-pyrido[2,3-c]pyridazin-8-yl]-3-[1-[[3-[2-[14-[2-[[[(2S,4R)-1-[(2S)-2-[(1-fluorocyclopropanecarbonyl)amino]-3,3-dimethyl-butanoyl]-4-hydroxy-pyrrolidine-2-carbonyl]amino]methyl]-5-(4-methylthiazol-5-yl)phenoxy]tetradecyl-methyl-amino]ethoxy]-5,7-dimethyl-1-adamantyl]methyl]-5-methyl-pyrazol-4-yl]pyridine-2-carboxylic acid] | > 1670 | 0.986 | 3 | 3
Cc1ncsc1-c1ccc([C@H](C)NC(=O)C2C[C@@H](O)CN2C(=O)C(NC(=O)COCCOCCOCCOCCN(C)CCOC23CC4(C)CC(C)(CC(Cn5ncc(-c6ccc(N7CCCc8c7nnc(Nc7nc9ccccc9s7)c8C)nc6C(=O)O)c5C)(C4)C2)C3)C(C)(C)C)cc1 (stereo in doubt) [Example 87, 6-[3-(1,3-benzothiazol-2-ylamino)-4-methyl-6,7-dihydro-5H-pyrido[2,3-c]pyridazin-8-yl]-3-[1-[[3-[2-[2-[2-[2-[2-[2-[[(1S)-1-[(2S,4R)-4-hydroxy-2-[[(1S)-1-[4-(4-methylthiazol-5-yl)phenyl]ethyl]carbamoyl]pyrrolidine-1-carbonyl]-2,2-dimethyl-propyl]amino]-2-oxo-ethoxy]ethoxy]ethoxy]ethoxy]ethyl-methyl-amino]ethoxy]-5,7-dimethyl-1-adamantyl]methyl]-5-methyl-pyrazol-4-yl]pyridine-2-carboxylic acid] | > 1670 | > 316 | 34.7 | 216
